{
  "source": "paper PMC12005787",
  "about": "“Synthetic Lethality of SHP2 and XIAP Suppresses Proliferation and Metastasis in KRAS‐mutant Nonsmall Cell Lung Cancer” (Advanced Science, 2025)",
  "key": {"NCI-H1975 cells": {"test_system": "NCI-H1975 cells", "test": "Cell viability assay (CCK-8)", "type": "cell-based", "settings": "Homo sapiens, NCI-H1975, 24 h, NCI-H1975, RAS-wild type, EGFR L858R/T790M", "protocol": "(§1) supplies are listed in Supplementary Table S5. […]\n(§2) KRAS-mutant and wild-type cells are listed in Supplementary Table S7.\n(§3) For the adherent cell viability assay, cells in the logarithmic growth phase were seeded in 96-well culture plates at a density of 5×103 well-1 and incubated overnight. Diluted compounds or DMSO were added, or specific treatments were incubated at 37 °C and 5% CO2 for 24 h or 48 h. Cell viability was determined using CCK-8 or CellLightTM Cell Viability Assay Kit, according to the manufacturer's protocol. The luminescence signals of the treated samples were normalized to those of the DMSO group. […]"}, "A549 cells": {"test_system": "A549 cells", "test": "Cell viability assay (CCK-8)", "type": "cell-based", "settings": "Homo sapiens; A549, KRAS G12S, 24 h; read-out: IC50 at 24 h", "protocol": "as §1, §2, §3"}, "A549 and NCI‐H2122 cells": {"test_system": "A549 and NCI‐H2122 cells", "test": "Cell proliferation in monolayer culture (CCK-8)", "type": "cell-based, human", "protocol": "as §3\nFigure S7. Targeting SHP2 and XIAP produces a synthetic lethal effect. (A) Effects of NSC-87877 on cell viability of A549 and NCI-H2122 cells after 24 and 48 h were determined using the CCK-8. Bars, ± SEM. The curves were plotted using a variable slope (four-parameter) non-linear fit. (B, E, F, and I) Effects of Na3VO4 (B), birinapant (E), BV-6 (F), and LCL161 (I) on cell viability of human NCI-H2122 cells at 48 h were determined using the CCK-8. *p < 0.05, **p < 0.01 and ***p < 0.001 compared to control group (unpaired two-tailed Student’s t-test).(C, G) Effects of SHP099 (C) and GDC-0152 (G) on cell viability after 24 and 48 h were determined using the CCK-8. Bars, ± SEM. The curves were plotted using a variable slope (four-parameter) non-linear fit.(D, H) Effects of SHP099 (D) and GDC-0152 (H) on cell viability were determined after 48 h using intracellular ATP chemiluminescence. **p < 0.01 and ***p < 0.001 compared to control group (unpaired two-tailed Student’s t-test).(J) Effects of SHP099 and GDC-0152 separately and in combination, and the effect of embelin for 24 h on the cell viability were assessed using intracellular ATP […]\ntailed Student’s t-test).(K) Effects of SHP099 and GDC-0152 separately and in combination with […] on the cell viability of human KRAS-WT and -mutant cells were assessed using a colony formation assay. (L, M) A549 and NCI-H2122 cells were instantaneously transfected with siPTPN11 and siXIAP separately and together for 24 h under"}, "XIAP": {"biological_target": "T1, XIAP (Homo sapiens, UniProt P98170)", "T1 construct": "endogenous in cells; host or cells: NCI-H2122", "T1 sequence (P98170 whole entry)": "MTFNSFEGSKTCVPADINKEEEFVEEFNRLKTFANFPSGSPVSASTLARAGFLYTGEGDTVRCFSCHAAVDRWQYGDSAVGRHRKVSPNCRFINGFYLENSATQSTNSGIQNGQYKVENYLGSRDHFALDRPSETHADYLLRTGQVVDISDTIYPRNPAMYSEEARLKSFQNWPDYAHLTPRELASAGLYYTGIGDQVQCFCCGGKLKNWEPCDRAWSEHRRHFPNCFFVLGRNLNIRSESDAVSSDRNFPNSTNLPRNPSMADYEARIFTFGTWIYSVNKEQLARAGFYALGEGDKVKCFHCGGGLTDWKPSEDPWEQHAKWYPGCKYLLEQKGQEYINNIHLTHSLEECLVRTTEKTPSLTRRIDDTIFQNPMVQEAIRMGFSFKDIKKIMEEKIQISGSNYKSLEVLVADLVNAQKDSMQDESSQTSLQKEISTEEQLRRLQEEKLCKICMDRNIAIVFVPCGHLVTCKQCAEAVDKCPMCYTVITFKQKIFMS", "test": "Cellular thermal shift assay (CETSA)", "type": "binding", "settings": "56 and 62 ℃", "protocol": "(§4) NCI‐H2122 cells were harvested and resuspended with pre‐cooled PBS containing 1% cocktail, which was then frozen in liquid nitrogen for 5 min and thawed in a water bath at 37 °C for 5 min for three repetitions. The supernatant was collected via centrifugation at 4 °C (15 000 × g, 20 min), divided into two equal portions; one was added with test drugs or various concentrations of embelin, and the other was added with DMSO as control and subsequently incubated at 25 °C for 30 min. All samples were heated at temperatures ranging from 52–70 °C for 3 min, and subsequently in an ice bath for 3 min and collected by centrifugation at 4 °C (15 000 × g, 20 min), and added with protein sampling buffer at 100 °C for 5 min, followed by analysis of protein stability using western blotting."}, "[1]": {"test_system": "NCI-H2122, A549, and NCI-H1944 cells", "test": "Cell senescence β-galactosidase staining", "type": "cell-based, human", "settings": "NCI‐H2122 cells; candidate drugs 10 μM", "protocol": "Cell senescence β-galactosidase staining\nNCI-H2122, A549, and NCI-H1944 cells in the logarithmic growth phase were seeded into 48-well plates and cultured overnight. The supernatant was aspirated and fresh serum-free (0%), low-serum (3%), or regular serum (10%) medium with different drugs was added for 48 h. When the supernatant was discarded, β-galactosidase staining fixation fluid were added for 15 min and β-galactosidase staining solution were imported overnight at 37 ℃.\nFinally, the staining results were recorded using an inverted microscope."}, "[2]": {"test_system": "KRAS‐mutant NSCLC cells in 3D culture", "test": "Cell proliferation in 3D cell culture (ATP chemiluminescence)", "type": "cell-based", "protocol": "as §1\nFor the adherent cell viability assay, cells in the logarithmic growth phase were seeded in 96-well culture plates at a density of 5×103 well-1 and incubated overnight. Diluted compounds or DMSO were added, or specific treatments were incubated at 37 °C and 5% CO2 for 24 h or 48 h. Cell viability was determined using CCK-8 or CellLightTM Cell Viability Assay Kit, according to the manufacturer's protocol. The luminescence signals of the treated samples were normalized to those of the DMSO group.\nFor spherical cell viability assays, cells in the logarithmic growth phase were inoculated ata density of 4×10^3 well-1 into 96-well spherical cell microplates and incubated at 37 °C, 5% CO2 for 24 h or 48 h. Cell viability was measured using the CellTiter-Glo® Luminescent Cell Viability 3D Cell Viability Assay Kit, according to the manufacturer’s protocol. The remaining steps were the same as those described above. […]\nFigure S7. Targeting SHP2 and XIAP produces a synthetic lethal effect. (A) Effects of NSC-87877 on cell viability of A549 and NCI-H2122 cells after 24 and 48 h were determined using the CCK-8. Bars, ± SEM. […]\ntailed Student’s t-test).(K) Effects of SHP099 and GDC-0152 separately and in combination with […] on the cell viability of human KRAS-WT and -mutant cells were assessed using a colony formation assay. […]"}, "SHP2": {"biological_target": "T2, SHP2 (Homo sapiens, UniProt Q06124)", "T2 construct": "endogenous in cells; host or cells: NCI-H2122", "T2 sequence (Q06124 1-593)": "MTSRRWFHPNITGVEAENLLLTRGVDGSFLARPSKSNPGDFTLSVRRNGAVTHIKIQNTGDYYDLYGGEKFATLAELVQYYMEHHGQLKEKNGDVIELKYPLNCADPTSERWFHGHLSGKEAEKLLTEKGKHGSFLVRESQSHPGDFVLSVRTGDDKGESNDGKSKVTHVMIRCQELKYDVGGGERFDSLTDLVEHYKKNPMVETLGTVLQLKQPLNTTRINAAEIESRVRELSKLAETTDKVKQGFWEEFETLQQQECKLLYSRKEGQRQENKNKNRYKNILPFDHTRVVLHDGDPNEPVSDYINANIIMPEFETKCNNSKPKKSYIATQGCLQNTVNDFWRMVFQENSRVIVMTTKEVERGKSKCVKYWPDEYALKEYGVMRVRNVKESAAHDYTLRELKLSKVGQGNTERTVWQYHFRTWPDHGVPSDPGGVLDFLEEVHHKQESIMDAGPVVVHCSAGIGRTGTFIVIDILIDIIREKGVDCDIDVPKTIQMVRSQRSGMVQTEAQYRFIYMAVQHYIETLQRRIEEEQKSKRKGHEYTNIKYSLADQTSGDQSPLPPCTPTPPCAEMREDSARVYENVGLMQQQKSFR", "test": "Cellular thermal shift assay (CETSA)", "type": "binding", "settings": "NCI‐H2122 cell lysate", "protocol": "as §4"}, "NCI‐H2122 tumor": {"test_system": "NCI‐H2122 tumor", "test": "NCI-H2122 subcutaneous transplantation tumor model", "type": "in vivo, BALB/c‐nu mouse", "settings": "i.p., q2d", "protocol": "NCI‐H2122 cells in the logarithmic growth phase were collected by mixing serum‐free RMPI‐1640 medium and Matrigel matrix gel, and injected subcutaneously into the right axilla of thymus‐less male BALB/c‐nu nude mice. Tumor volume was calculated according to V = ab^2/2 (where a and b are the long and short diameters of the tumor, respectively), and body weight was recorded every 3 days. When the tumor volume reached 100 mm^3, the mice were randomly divided into six groups (ten mice in each group): Control group (i.p, q2d), SHP099 (20 mg kg^−1, i.p, q2d) group, GDC‐0152 (20 mg kg^−1, i.p, q2d) group, SHP099 (20 mg kg^−1, i.p, q2d) + GDC‐ 0152 (20 mg kg^−1, i.p, q2d) co‐administration group, embelin (20 mg kg^−1, i.p, q2d) medium‐dose group and embelin (30 mg kg^−1, i.p, q2d) high‐dose group. When the tumor volume reached 1000 mm^3, all experimental mice were sacrificed, and tumor tissues and major organs, such as the heart, liver, spleen, lungs, and kidneys, were collected for further study."}},
  "data": [
    {"smiles": "C#Cc1cccc(Nc2ncnc3cc(OCCOC)c(OCCOC)cc23)c1", "note": "[erlotinib]", "values": [
      {"measurement": "IC50", "setting": "NCI-H1975 cells", "value": "> 100", "unit": "µM"},
      {"measurement": "IC50", "setting": "A549 cells", "value": "> 100", "unit": "µM"}
    ]},
    {"smiles": "O=S(=O)(O)c1ccc2cc(N=Nc3cc(S(=O)(=O)O)c4cccnc4c3O)ccc2c1", "note": "[NSC‐87877]", "values": [
      {"measurement": "effect on cell proliferation in monolayer cell culture mode", "setting": "A549 and NCI‐H2122 cells", "value": "almost no effect"},
      {"measurement": "effect on XIAP protein stability (CETSA)", "setting": "XIAP", "value": "did not affect XIAP protein stability"}
    ]},
    {"smiles": "[Na+].[Na+].[Na+].[O]=[V]([O-])([O-])[O-]", "note": "[Na3VO4]", "values": [
      {"measurement": "effect on cell proliferation in monolayer cell culture mode", "setting": "A549 and NCI‐H2122 cells", "value": "almost no effect"},
      {"measurement": "effect on XIAP protein stability (CETSA)", "setting": "XIAP", "value": "did not affect XIAP protein stability"}
    ]},
    {"smiles": "CN[C@@H](C)C(=O)N[C@H](C(=O)N1CCC[C@H]1C(=O)Nc1snnc1-c1ccccc1)C1CCCCC1", "note": "[GDC‐0152]", "values": [
      {"measurement": "induction of cell senescence", "setting": "[1]", "value": "induced cellular senescence"},
      {"measurement": "effect on cell proliferation in monolayer cell culture mode", "setting": "A549 and NCI‐H2122 cells", "value": "almost no effect"},
      {"measurement": "effect on cell proliferation in 3D cell culture", "setting": "[2]", "value": "partially inhibited cell proliferation"},
      {"measurement": "effect on SHP2 protein stability (CETSA)", "setting": "SHP2", "value": "did not affect SHP2 protein stability"},
      {"measurement": "effect on body weight of the mice", "setting": "NCI‐H2122 tumor", "value": "little or no effect on the body weight"},
      {"measurement": "effect on weights of hearts, livers, lungs, and kidneys and structure of hearts and kidneys", "setting": "NCI‐H2122 tumor", "value": "no significant effect"}
    ]}
  ]
}
